Data taken from ChEMBL document CHEMBL1201862, “PubChem BioAssay data set” (2004).
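Exposure lasted 48 hours, with cells grown in 96-well plates and compounds tested at five concentrations. GI50 marks 50% less growth.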 Active and inactive are the calls of the source. Rule as the data show it: active = GI50 up to about 1.1 µM and inactive = higher.

Experiments:
Test in all cases: NCI tumour cell line growth inhibition, 48 h
SF-268 = tested on: SF-268
MDA-MB-231 = tested on: MDA-MB-231
OVCAR-8 = tested on: OVCAR-8
OVCAR-3 = tested on: OVCAR-3
NCI-H522 = tested on: NCI-H522
SK-MEL-2 = tested on: SK-MEL-2
UACC-257 = tested on: UACC-257
UO-31 = tested on: UO-31
HCC 2998 = tested on: HCC 2998
SK-OV-3 = tested on: SK-OV-3
M14 = tested on: M14
HCT-116 = tested on: HCT-116
SN12C = tested on: SN12C
ACHN = tested on: ACHN
SK-MEL-5 = tested on: SK-MEL-5
HCT-15 = tested on: HCT-15
A549 = tested on: A549
Malme-3M = tested on: Malme-3M
OVCAR-4 = tested on: OVCAR-4
NCI-H460 = tested on: NCI-H460

Row | Compound | GI50 (SF-268) | GI50 (MDA-MB-231) | GI50 (OVCAR-8) | GI50 (OVCAR-3) | GI50 (NCI-H522) | GI50 (SK-MEL-2) | GI50 (UACC-257) | GI50 (UO-31) | GI50 (HCC 2998) | GI50 (SK-OV-3) | GI50 (M14) | GI50 (HCT-116) | GI50 (SN12C) | GI50 (ACHN) | GI50 (SK-MEL-5) | GI50 (HCT-15) [µM] | GI50 (A549) | GI50 (Malme-3M) | GI50 (OVCAR-4) | GI50 (NCI-H460)
1 | CCOC(=O)C(NCc1cccc(C(F)(F)F)c1)(NC(=O)c1ccccc1)C(F)(F)F (stereo unspecified) | 47.9 µM (inactive) | 11.5 µM (inactive) | 32.4 µM (inactive) | 22.8 µM (inactive) | 17.6 µM (inactive) | 21.4 µM (inactive) | 18 µM (inactive) | 18.1 µM (inactive) | 26.1 µM (inactive) | 78.3 µM (inactive) | 27.8 µM (inactive) | 28.5 µM (inactive) | 31.2 µM (inactive) | 25.9 µM (inactive) | 30.5 µM (inactive) | 23.1 | 22.9 µM (inactive) | 21.7 µM (inactive) | 21.6 µM (inactive) | 
2 | Cc1nc2ccccc2c(=O)n1NC(=O)Cc1ccccc1 | > 100 µM (inactive) | > 100 µM (inactive) | > 100 µM (inactive) | > 100 µM (inactive) | > 100 µM (inactive) |  | > 100 µM (inactive) | > 100 µM (inactive) | > 100 µM (inactive) | > 100 µM (inactive) | > 100 µM (inactive) | > 100 µM (inactive) | > 100 µM (inactive) | > 100 µM (inactive) | > 100 µM (inactive) |  | > 100 µM (inactive) | > 100 µM (inactive) | > 100 µM (inactive) | > 100 µM (inactive)
3 | CCN(CCCl)c1ccc(NC(=O)c2cc(C(=O)NCCN(C)C)cc(C(=O)Nc3ccc(N(CC)CCCl)cc3)c2)cc1 | 0.891 µM (active) | 15.6 µM (inactive) | 3.57 µM (inactive) |  | 2.3 µM (inactive) | 15.7 µM (inactive) | 18.1 µM (inactive) | > 100 µM (inactive) | 10.6 µM (inactive) | 4.26 µM (inactive) | 9.38 µM (inactive) | 3.03 µM (inactive) | 2.08 µM (inactive) | 5.25 µM (inactive) | 12.3 µM (inactive) | 51.1 | 6.24 µM (inactive) | 13.6 µM (inactive) | 9.38 µM (inactive) | 0.713 µM (active)
4 | CC(=O)O[C@@]12CO[C@@H]1C[C@@H](O)[C@@]1(C)C(=O)[C@H](O)C3=C(C)[C@@H](OC(=O)[C@H](O)[C@@H](NC(=O)c4ccccc4)c4ccccc4)C[C@@](O)([C@@H](OC(=O)c4ccccc4)C12)C3(C)C (stereo partly specified) | 0.0594 µM (active) | 0.0408 µM (active) | 0.0803 µM (active) | < 0.0162 µM (active) | < 0.0122 µM (active) | < 0.01 µM (active) | 0.0217 µM (active) | 4.51 µM (inactive) | 0.0212 µM (active) | 0.026 µM (active) | 0.0363 µM (active) | < 0.01 µM (active) | 0.0184 µM (active) | 2.77 µM (inactive) |  | 3.03 | 0.083 µM (active) |  | 24.7 µM (inactive) | 0.0217 µM (active)
5 | O=C(NC12CC3CC(CC(C3)C1)C2)n1cnc2c(Cl)ncnc21 | 22.6 µM (inactive) | 42.8 µM (inactive) | 26 µM (inactive) | 22.7 µM (inactive) | 27.9 µM (inactive) | 28.3 µM (inactive) | 35.8 µM (inactive) | > 100 µM (inactive) | 19.1 µM (inactive) | 34.3 µM (inactive) | 23.1 µM (inactive) | 37.8 µM (inactive) | > 100 µM (inactive) | 21.2 µM (inactive) | 24.2 µM (inactive) | 35 | 38.4 µM (inactive) | > 100 µM (inactive) |  | 28 µM (inactive)
6 | CN(C)Cc1cc(C(=O)/C=C/c2ccc([N+](=O)[O-])cc2)cc(CN(C)C)c1O | 16 µM (inactive) | 14.9 µM (inactive) | 25 µM (inactive) | 2.27 µM (inactive) | 4.74 µM (inactive) | 11.1 µM (inactive) | 14.1 µM (inactive) | 16.1 µM (inactive) | 17.4 µM (inactive) |  | 9.23 µM (inactive) | 2.86 µM (inactive) | 7.8 µM (inactive) | 3.33 µM (inactive) | 11.3 µM (inactive) | 10.1 | 22.7 µM (inactive) |  |  | 
7 | O=C(N/N=C(COc1ccccc1)\N=C\c1cccnc1)c1ccncc1 | > 100 µM (inactive) | > 100 µM (inactive) | > 100 µM (inactive) | > 100 µM (inactive) | > 100 µM (inactive) | > 100 µM (inactive) | > 100 µM (inactive) |  | > 100 µM (inactive) | > 100 µM (inactive) | > 100 µM (inactive) | > 100 µM (inactive) | > 100 µM (inactive) | > 100 µM (inactive) |  | > 100 | > 100 µM (inactive) | > 100 µM (inactive) | > 100 µM (inactive) | > 100 µM (inactive)
8 | C[N+]1(C)CC[N+](C)(C)[BH-]1C(O)O | > 100 µM (inactive) | > 100 µM (inactive) | > 100 µM (inactive) | > 100 µM (inactive) | > 100 µM (inactive) | > 100 µM (inactive) | > 100 µM (inactive) | > 100 µM (inactive) | > 100 µM (inactive) |  | > 100 µM (inactive) | > 100 µM (inactive) | > 100 µM (inactive) | > 100 µM (inactive) | > 100 µM (inactive) | > 100 | > 100 µM (inactive) |  | > 100 µM (inactive) | > 100 µM (inactive)
9 | Cn1c2ccccc2c2c3c(c4c5ccccc5n(C)c4c21)C(=O)NC3=O | 97.5 µM (inactive) | 13.4 µM (inactive) | 18.7 µM (inactive) |  | 21.2 µM (inactive) | > 26.5 µM (inactive) | > 65.2 µM (inactive) | > 54.2 µM (inactive) | > 33.7 µM (inactive) | 5.35 µM (inactive) | > 41.3 µM (inactive) | > 64.1 µM (inactive) | > 37.9 µM (inactive) |  | 20.7 µM (inactive) | > 100 | > 19.7 µM (inactive) | 20.5 µM (inactive) | 5.3 µM (inactive) | 7.6 µM (inactive)
10 | CC(=O)OCc1cc2ccccc2nc1C(Br)(Br)Br | 17.8 µM (inactive) | 19.3 µM (inactive) |  | 14.8 µM (inactive) | 16 µM (inactive) | 18.5 µM (inactive) | 12.4 µM (inactive) | 15.6 µM (inactive) | 15.4 µM (inactive) | 28.3 µM (inactive) | 18.8 µM (inactive) | 12.5 µM (inactive) | 13.2 µM (inactive) | 13.2 µM (inactive) | 11.1 µM (inactive) | 16.9 | 16.4 µM (inactive) | 0.603 µM (active) | 11.8 µM (inactive) | 16.2 µM (inactive)
11 | COc1cc(OC)c(/C=C\c2ccnc3ccccc23)c(OC)c1 | 5.97 µM (inactive) | 3.05 µM (inactive) |  | 2.92 µM (inactive) | 3.76 µM (inactive) | 3.88 µM (inactive) | 3.75 µM (inactive) | 0.859 µM (active) | 9.31 µM (inactive) | 6.44 µM (inactive) | 3.4 µM (inactive) | 2.5 µM (inactive) | 4.71 µM (inactive) | 4.41 µM (inactive) | 1.7 µM (inactive) | 0.794 | 4.13 µM (inactive) | 1.34 µM (inactive) | 0.349 µM (active) | 3.2 µM (inactive)
12 | C[N+]1(c2ccccc2)C=C(c2ccccc2)SC1=S (stereo unspecified) | > 100 µM (inactive) | > 100 µM (inactive) | > 100 µM (inactive) | 8.22 µM (inactive) | 30.6 µM (inactive) | 58.3 µM (inactive) | 48.9 µM (inactive) | > 100 µM (inactive) | > 100 µM (inactive) |  | > 100 µM (inactive) | > 100 µM (inactive) | > 100 µM (inactive) | > 100 µM (inactive) | 33.4 µM (inactive) | > 100 | > 100 µM (inactive) | 73.1 µM (inactive) |  | 95.7 µM (inactive)
13 | COC1(c2ccccc2)N=C(S)NN=C1c1ccccc1 (stereo unspecified) | 37.2 µM (inactive) | 27.5 µM (inactive) | 29.3 µM (inactive) | 30.9 µM (inactive) | 24.9 µM (inactive) | 27.9 µM (inactive) | 49.1 µM (inactive) | > 100 µM (inactive) | 19.2 µM (inactive) | 26.7 µM (inactive) | 27.5 µM (inactive) | 35.5 µM (inactive) | 21 µM (inactive) | > 100 µM (inactive) | 29.5 µM (inactive) | 24.3 | 45.2 µM (inactive) | 60.4 µM (inactive) |  | 27.5 µM (inactive)
14 | C=CCc1cccc2cc(C(=O)Nc3ccccc3)c(=N)oc12 | > 100 µM (inactive) | > 100 µM (inactive) | > 100 µM (inactive) | > 100 µM (inactive) | 10.4 µM (inactive) | 8.47 µM (inactive) | > 100 µM (inactive) |  | 4.8 µM (inactive) | 61.7 µM (inactive) | 60.7 µM (inactive) | 18.1 µM (inactive) | 55.8 µM (inactive) | 10.1 µM (inactive) | 21.7 µM (inactive) | 33.6 | 15 µM (inactive) | 7.14 µM (inactive) | 15.6 µM (inactive) | 63.2 µM (inactive)
15 | COc1c(OC(C)=O)c(OC(C)=O)cc2c1-c1ccc(OC)c(=O)cc1C(NC(C)=O)CC2 (stereo unspecified) | 0.0218 µM (active) | 0.0129 µM (active) | 0.0254 µM (active) | 0.0138 µM (active) | 0.0114 µM (active) | 0.0186 µM (active) |  | 4.86 µM (inactive) | 0.0217 µM (active) | 2.29 µM (inactive) | < 0.0125 µM (active) | 0.0215 µM (active) | 0.0348 µM (active) | 0.439 µM (active) | 0.0116 µM (active) | 0.465 | 0.209 µM (active) | < 0.01 µM (active) | 31.9 µM (inactive) | 0.0451 µM (active)
